Source: patent US20230382926A1, “COMPOUNDS AND USES THEREOF” (The University of The West Indies, priority 2022, published 2023)

Legend:
[1] = system: clinical isolate CR-K. pneumoniae 7225; assay: Non-lethal mouse peritonitis infection model; format: in vivo, Swiss albino mice; details: monotherapy at 10 mg kg^−1; preliminary dosing experiments
Experimental: For both lethal and non-lethal infection models involving Carbapenem resistant Klebsiella pneumoniae suitable strains, number of mice per treatment and bacterial infection dose were predetermined in preliminary experiments.
Each mouse (n=6 per group) received an intraperitoneal (i.p.) injection of 200 μl of bacterial suspension (1×10^4 CFU ml^−1).
Mice were then treated once daily for two subsequent days (i.e. 24 h and 48 h). Twenty-four-hours after the last dose, the mice were euthanized via cervical dislocation and their spleen and liver excised, homogenized in PBS and plated onto Hichrome™ Klebsiella selective media (HiMedia Laboratories, PA, USA). The plates were incubated at 35° C. for 24 h and bacterial counts were determined (CFU g^−1 organ).
Based on the significance of the SP-azaBIMs to restore the in vitro efficacy of antibiotics against high priority pathogenic bacteria, we examined if these compounds could provide proof of concept that they could be used to treat in vivo infections. To test this, we performed both non-lethal and lethal intraperitoneal infection models in Swiss Albino mice.
There was a significant reduction in the K. pneumoniae load in both the liver (FIG. 2a) and spleen (FIG. 2b) for the combination therapies compared to the respective antibiotic monotherapies. […] Colistin (Col) (10 mg kg^−1) was used as the positive control in this case. K. pneumoniae load in the liver (FIG. 2a) and spleen (FIG. 2b) was determined by selective plating on Hichrome™ Klebsiella selective media. Data bars represent the average (n=6 mice per treatment group)±standard error.

[2] = system: Klebsiella pneumoniae ATCC BAA-2814; assay: Gene expression analysis by quantitative reverse transcription PCR; format: cell-based; details: for ROB gene expression compared to untreated cells / soxS gene expression compared to untreated cells: Meropenem only 0.25 MIC (8 μg mL^−1)
Experimental: Cell treatment and RNA extraction: Overnight cultures of Klebsiella pneumoniae ATCC BAA-2814 grown on Brain Heart Infusion (BHI) agar was harvested and washed in phosphate buffer saline (pH=7.4) twice. Fresh Brain Heart infusion broth was inoculated with K. pneumoniae cells to a final concentration of 10^6 CFU mL^−1. Cells were subjected to the following treatments: T0—Vehicle only (ddH2O); T1—Meropenem only (0.25 MIC; 8 μg mL^−1); T2—Meropenem 0.25 MIC+SP-azaBIM 136 (2 ug mL^−1). Treated cells were incubated at 35° C. at 200 rpm and total RNA was extracted at 1 h and 6 h post exposure using TRIzol reagent (Life Technologies) following the manufacturer's protocol before eluting in DEPC treated water. Three biological replicates were included for each treatment.
Quantitative reverse transcription PCR analysis: Reverse transcription was done using the GoScript Reverse Transcriptase Kit (Promega, USA) employing a mixture (1:1) of random and oligo dT primers with 2 μg RNA as starting material in a 20-μL reaction following the manufacturers protocols. cDNA samples were then quantified by real-time PCR using specific primers in an Applied Biosystems 7500 Fast Real-Time PCR system (Life Technologies Corp., USA) and the data analysed using the 2^(−ΔΔct) method. Thermal cycling was performed using a two-step PCR amplification standard procedure at 95° C. for 30 s and 35 cycles of 95° C. for 5 s and 60° C. for 30 s. The expression levels of all the genes were normalized using the K. pneumoniae RNA polymerase sigma factor (rpoD) gene as an internal standard.
To examine this hypothesis, we investigated the expression of genes in K. pneumoniae ATCC […] that were affected by SP-azaBIM 136 treatment. Expression of key transcription factors and their associated downstream resistance and pathogenicity genes was examined in Klebsiella pneumoniae cells treated with meropenem and a combination of meropenem and SP-azaBIM 136. Cells in the exponential phase were either treated with 0.25 MIC (8 μg mL^−1) of Meropenem only or a combination of 0.25 MIC meropenem and 10 μg mL^−1 of SP-azaBIM 136. Untreated cells served as the control for baseline gene expression. Cells were exposed to each agent for 1 h and 6 h, after which the total RNA was extracted, and cDNA synthesis performed. […] The addition of SP-azaBIM 136 was theorized to revert the expression of the relevant genes closer to baseline expression levels.

K. pneumoniae = assay: Rescue concentration of substituted phenyl azaindole derivatives; format: cell-based; details: for Rescue concentration, K. pneumoniae Ciprofloxacin (1 μg/mL): Ciprofloxacin fixed at 1 μg/mL; for Rescue concentration, K. pneumoniae Imipenem (1 μg/mL): Imipenem fixed at 1 μg/mL
Experimental: (§1) The antibiotic adjuvant activity of the SPazaBIMs were evaluated in combination with representative antibiotics (representing 13 antibiotic classes) against the 19 pathogens strains listed in Table 3. To assess the adjuvant properties of the SP-azaBIM molecules, a modified checkerboard minimum inhibitory concentration assay was used. A fixed concentration of the respective antibiotic (susceptible breakpoint concentration) was mixed with a twofold dilution series of the test SP-azaBIM (FIG. 1). This was to determine the concentration of SP-azaBIM needed potentiate the antibiotic at a clinically susceptible breakpoint concentration. Antibiotic susceptible breakpoint concentrations for the respective bacteria were determined using Clinical Laboratory Standards Institute (CLSI) criteria M100 ED31.
(§2) In this study, only those antibiotics to which the bacterial was classed as resistant were included in the adjuvant assays. In this assay we recorded the rescue concentration of the SP-BIM for a respective antibiotic. The rescue concentration was defined as the concentration of the adjuvant that reduces the minimum inhibitory concentration (MIC) of an antibiotic to the susceptibility breakpoint.
(§3) Immediately prior to testing, the respective antibiotic and SP-azaBIM was dissolved in sterile deionised water at 20× the required test concentration. Each microtiter well was then inoculated with 180 μl of bacterial inoculum of 10^6 CFU/ml in ca-MHB, and 10 μl each if the antibiotic and SP-azaBIM was added to the plates. These plates were then incubated at 35° C. for 24 h under aerobic conditions. A similar method was followed for the fastidious pathogens except that they were cultured in ca-MHB with 5% sheep blood and 5% CO2.
(§4) Bacterial growth was visually inspected after the incubation period and the rescue concentration of the test SP-azaBIM was determined as the lowest concentration of the compound needed to reduce bacterial growth by 99.99% at the susceptible breakpoint concentration of the antibiotic. For example, CLSI states that Pseudomonas aeruginosa is susceptible to the Imipenem if the MIC is ≤2 μg mL^−1. If the bacteria can tolerate this concentration in vitro, then the bacteria has an intermediate or absolute resistance toward that antibiotic. The goal was to determine the concentration of SP-azaBIM needed to cause P. aeruginosa death at 2 μg mL^−1 of Imipenem therefore restoring susceptibility of the bacteria to toward the antibiotic.
(§5) Phenyl azaindole compounds are also tested for their adjuvant activities and the method is shown in Example 39.

P. aeruginosa = assay: as above; format: cell-based; details: Imipenem fixed at 1 μg/mL
Experimental: as §1, §2, §3
Bacterial growth was visually inspected after the incubation period and the rescue concentration of the test SP-azaBIM was determined as the lowest concentration of the compound needed to reduce bacterial growth by 99.99% at the susceptible breakpoint concentration of the antibiotic. […] If the bacteria can tolerate this concentration in vitro, then the bacteria has an intermediate or absolute resistance toward that antibiotic. […]
as §5

[3] = system: Vancomycin resistant Enterococcus faecalis; assay: Broth microdilution minimum inhibitory concentration; format: cell-based; details: compound alone
Experimental: (§6) Antibacterial activity of the synthesized compounds was determined following guidelines established by the Clinical and Laboratory Standards Institute M07-A10 (CLSI 2015), following the broth microdilution method. Briefly, the test articles were dissolved in 100% DMSO, diluted by 2-fold serial titrations in the same vehicle (100% DMSO), for a total of 11 concentrations. A 4 μL aliquot of each dilution was then added to 196 μL of broth medium seeded with the bacterial suspension in wells of a 96 well plate (bacterial count: 2×10^5 to 8×10^5 colony forming units/mL final). The highest test substance concentration was 1028 μg/mL, and the final vehicle concentration was 2 percent. Following incubation, the test plate was visually examined, and each well was scored for growth or complete inhibition of growth. The minimum inhibitory concentration was determined as the lowest concentration were no growth of the bacterial was observed. Each test article was assayed in duplicate.

[4] = system: Methicillin resistant Staphylococcus aureus; assay: as above; format: cell-based; details: compound alone
Experimental: as §6

[5] = system: Carbapenem resistant Acinetobacter baumannii; assay: as above; format: cell-based; details: compound alone
Experimental: as §6

[6] = system: Multidrug resistant Pseudomonas aeruginosa; assay: as above; format: cell-based; details: compound alone
Experimental: as §6

[7] = system: Carbapenem resistant Klebsiella pneumoniae; assay: as above; format: cell-based; details: compound alone
Experimental: as §6

MRSA = assay: Rescue concentration of substituted phenyl azaindole derivatives; format: cell-based, Staphylococcus aureus; details: Amoxicillin fixed at 2 μg/mL
Experimental: as §1, §2, §3, §4, §5

Row | MIC [3] | MIC [4] | MIC [5] | MIC [6] | MIC [7] | SMILES | Efficacy of antibiotic monotherapy against K. pneumoniae 7225 [1] | mexA efflux pump gene expression above untreated cells (peak) ([2]; Meropenem only) | norB efflux pump gene expression above untreated cells (peak) ([2]; Meropenem only) | ROB gene expression compared to untreated cells ([2]; 1 h) | ROB gene expression compared to untreated cells ([2]; 6 h) | soxS gene expression compared to untreated cells ([2]; 6 h) | soxS gene expression compared to untreated cells ([2]; initial (1 h)) | Rescue concentration, K. pneumoniae Ciprofloxacin (1 μg/mL) (K. pneumoniae) | Rescue concentration, K. pneumoniae Imipenem (1 μg/mL) (K. pneumoniae) | Rescue concentration, P. aeruginosa Imipenem (1 μg/mL) (P. aeruginosa) | Rescue concentration, MRSA Amoxicillin (2 μg/mL) (MRSA)
1 |  |  |  |  |  | C[C@@H](O)[C@H]1C(=O)N2C(C(=O)O)=C(S[C@@H]3CN[C@H](C(=O)N(C)C)C3)[C@H](C)[C@H]12 [Meropenem, reference compound] | ineffective | 8.7 folds | 2.2 folds | approximately 3 folds | 12 folds | 18 folds | 3 folds |  |  |  | 
2 | < 1020 µg/mL | < 1020 µg/mL | < 1020 µg/mL | < 1020 µg/mL | < 1020 µg/mL | O=[N+]([O-])c1cccc(C(O)c2c[nH]c3ncc(Cl)cc23)c1 (stereo not shown) [3NO2-5Cl-7aza-OH, (5-chloro-1H-pyrrolo[2,3-b]pyridin-3-yl)(3-nitrophenyl)methanol] |  |  |  |  |  |  |  | <256 µg/mL | <256 µg/mL | <256 µg/mL | <256 µg/mL
3 | < 1020 µg/mL | < 1020 µg/mL | < 1020 µg/mL | < 1020 µg/mL | < 1020 µg/mL | O=[N+]([O-])c1ccccc1C(O)c1c[nH]c2ncccc12 (stereo not shown) [Compound 2NO2-7aza-OH, (2-nitrophenyl)(1H-pyrrolo[2,3-b]pyridin-3-yl)methanol] |  |  |  |  |  |  |  | <256 µg/mL | <256 µg/mL | <256 µg/mL | 256 µg/mL
4 | < 1020 µg/mL | < 1020 µg/mL | < 1020 µg/mL | < 1020 µg/mL | < 1020 µg/mL | O=[N+]([O-])c1cccc(C(O)c2c[nH]c3ncccc23)c1 (stereo not shown) [Compound 3NO2-7aza-OH, (3-nitrophenyl)(1H-pyrrolo[2,3-b]pyridin-3-yl)methanol] |  |  |  |  |  |  |  | <256 µg/mL | <256 µg/mL | <256 µg/mL | <256 µg/mL
5 | < 1020 µg/mL | < 1020 µg/mL | < 1020 µg/mL | < 1020 µg/mL | < 1020 µg/mL | O=[N+]([O-])c1cccc(C(O)c2c[nH]c3cnc(Cl)cc23)c1 (stereo not shown) [3NO2-5Cl-6aza-OH, (5-chloro-1H-pyrrolo[2,3-c]pyridin-3-yl)(3-nitrophenyl)methanol] |  |  |  |  |  |  |  | <256 µg/mL | <256 µg/mL | <256 µg/mL | <256 µg/mL
6 | < 1020 µg/mL | < 1020 µg/mL | < 1020 µg/mL | < 1020 µg/mL | < 1020 µg/mL | O=[N+]([O-])c1ccc(C(O)c2c[nH]c3ncccc23)cc1 (stereo not shown) [Compound 4NO2-7aza-OH, (4-nitrophenyl)(1H-pyrrolo[2,3-b]pyridin-3-yl)methanol] |  |  |  |  |  |  |  | <256 µg/mL | <256 µg/mL | <256 µg/mL | 32 µg/mL
7 | < 1020 µg/mL | < 1020 µg/mL | < 1020 µg/mL | < 1020 µg/mL | < 1020 µg/mL | Oc1ccc(C(c2c[nH]c3cnc(Cl)cc23)c2c[nH]c3cnc(Cl)cc23)cc1 [4OH-Bis 5Cl 6aza, 4-(bis(5-chloro-1H-pyrrolo[2,3-c]pyridin-3-yl)methyl)phenol] |  |  |  |  |  |  |  | <256 µg/mL | <256 µg/mL | <256 µg/mL | 8 µg/mL
8 | < 1020 µg/mL | < 1020 µg/mL | < 1020 µg/mL | < 1020 µg/mL | < 1020 µg/mL | Oc1ccc(C(O)c2c[nH]c3ncccc23)cc1 (stereo not shown) [Compound 4OH-7aza-OH, 4-(hydroxy(1H-pyrrolo[2,3-b]pyridin-3-yl)methyl)phenol] |  |  |  |  |  |  |  | <256 µg/mL | <256 µg/mL | <256 µg/mL | 128 µg/mL
